PubChem BioAssay (NCI)
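Values below derive from 48-hour exposures of cells grown in 96-well plates, with endpoints linearly interpolated between the two concentrations bracketing the appropriate inhibition level. At the GI50, growth is halved. Definition used: TGI = concentration required for complete inhibition of growth.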

Experiments:
Experiment in all cases: NCI anticancer screen, dose series, 48 h
OVCAR-8 ovarian = test system: OVCAR-8 ovarian
HT29 colon = test system: HT29 colon
TK-10 renal = test system: TK-10 renal
786-0 renal = test system: 786-0 renal
MALME-3M melanoma = test system: MALME-3M melanoma
SK-MEL-2 melanoma = test system: SK-MEL-2 melanoma
SN12C renal = test system: SN12C renal
BT-549 breast = test system: BT-549 breast
NCI-H23 lung = test system: NCI-H23 lung
SK-MEL-5 melanoma = test system: SK-MEL-5 melanoma
OVCAR-3 ovarian = test system: OVCAR-3 ovarian
UO-31 renal = test system: UO-31 renal
SK-OV-3 ovarian = test system: SK-OV-3 ovarian
SF-268 CNS = test system: SF-268 CNS
MDA-MB-435 = test system: MDA-MB-435
HL-60(TB) leukemia = test system: HL-60(TB) leukemia
K-562 leukemia = test system: K-562 leukemia
A549 NSCLC = test system: A549 NSCLC
SNB-75 CNS = test system: SNB-75 CNS
RPMI-8226 leukemia = test system: RPMI-8226 leukemia
HCC-2998 colon = test system: HCC-2998 colon
SF-539 CNS = test system: SF-539 CNS
MDA-MB-468 breast = test system: MDA-MB-468 breast
A498 renal = test system: A498 renal
NCI-H522 lung = test system: NCI-H522 lung
SR leukemia = test system: SR leukemia
COLO 205 colon = test system: COLO 205 colon
NCI/ADR-RES ovarian = test system: NCI/ADR-RES ovarian
HOP-92 NSCLC = test system: HOP-92 NSCLC
KM12 colon = test system: KM12 colon
DU-145 prostate = test system: DU-145 prostate
UACC-62 melanoma = test system: UACC-62 melanoma
SNB-19 CNS = test system: SNB-19 CNS
MOLT-4 leukemia = test system: MOLT-4 leukemia
PC-3 prostate = test system: PC-3 prostate
ACHN renal = test system: ACHN renal
IGROV1 ovarian = test system: IGROV1 ovarian
T-47D breast = test system: T-47D breast
SF-295 CNS = test system: SF-295 CNS
UACC-257 melanoma = test system: UACC-257 melanoma
HCT-116 colon = test system: HCT-116 colon
RXF 393 renal = test system: RXF 393 renal
NCI-H226 lung = test system: NCI-H226 lung
CCRF-CEM leukemia = test system: CCRF-CEM leukemia
NCI-H460 lung = test system: NCI-H460 lung
CAKI-1 renal = test system: CAKI-1 renal
M14 melanoma = test system: M14 melanoma
U251 CNS = test system: U251 CNS
SK-MEL-28 melanoma = test system: SK-MEL-28 melanoma
HCT-15 colon = test system: HCT-15 colon
HOP-62 NSCLC = test system: HOP-62 NSCLC
EKVX NSCLC = test system: EKVX NSCLC
OVCAR-5 ovarian = test system: OVCAR-5 ovarian
OVCAR-4 ovarian = test system: OVCAR-4 ovarian
MCF7 breast = test system: MCF7 breast

In the case of `COc1ccc(-c2ccnc(SCc3cc4ccccc4[nH]c3=O)n2)cc1OC`, the GI50 (OVCAR-8 ovarian) is reported as 23.2 µM, the TGI (OVCAR-8 ovarian) is reported as greater than 100 µM and the GI50 (HT29 colon) is reported as 18.8 µM. The TGI (HT29 colon) was 40.6 µM, the GI50 (TK-10 renal) was 17.5 µM and the TGI (TK-10 renal) was 58.9 µM. For the same compound, the GI50 (786-0 renal) was 14.5 µM, the TGI (786-0 renal) was 37.9 µM and the GI50 (MALME-3M melanoma) was 23.1 µM. It also gave a TGI (MALME-3M melanoma) of 54.4 µM, a GI50 (SK-MEL-2 melanoma) of 16.9 µM and a TGI (SK-MEL-2 melanoma) of 50.4 µM. The GI50 (SN12C renal) was 12.4 µM, the TGI (SN12C renal) was 34.9 µM and the GI50 (BT-549 breast) was 7.58 µM. The TGI (BT-549 breast) was 34.8 µM, the GI50 (NCI-H23 lung) was 17.4 µM and the TGI (NCI-H23 lung) was 42.6 µM. It also gave a GI50 (SK-MEL-5 melanoma) of 13 µM, a TGI (SK-MEL-5 melanoma) of 42.8 µM and a GI50 (OVCAR-3 ovarian) of 19.5 µM. It also gave a TGI (OVCAR-3 ovarian) of 56.4 µM, a GI50 (UO-31 renal) of 11.1 µM and a TGI (UO-31 renal) of 26.6 µM. The GI50 (SK-OV-3 ovarian) was 19.9 µM, the TGI (SK-OV-3 ovarian) was 41.7 µM and the GI50 (SF-268 CNS) was 20.8 µM. The TGI (SF-268 CNS) was greater than 100 µM, the GI50 (MDA-MB-435) was 30.6 µM and the TGI (MDA-MB-435) was greater than 100 µM. It also gave a GI50 (HL-60(TB) leukemia) of 99.6 µM, a TGI (HL-60(TB) leukemia) greater than 100 µM and a GI50 (K-562 leukemia) of 5.48 µM. The TGI (K-562 leukemia) was greater than 100 µM, the GI50 (A549 NSCLC) was 23.6 µM and the TGI (A549 NSCLC) was greater than 100 µM. It also gave a GI50 (SNB-75 CNS) of 4.36 µM, a TGI (SNB-75 CNS) of 23.6 µM and a GI50 (RPMI-8226 leukemia) of 16.3 µM. It also gave a TGI (RPMI-8226 leukemia) greater than 100 µM, a GI50 (HCC-2998 colon) of 21.4 µM and a TGI (HCC-2998 colon) of 58.8 µM. The GI50 (SF-539 CNS) was 12.4 µM, the TGI (SF-539 CNS) was 27.4 µM and the GI50 (MDA-MB-468 breast) was 4.27 µM. The TGI (MDA-MB-468 breast) was 34 µM, the GI50 (A498 renal) was 17.8 µM and the TGI (A498 renal) was 50.9 µM. It also gave a GI50 (NCI-H522 lung) of 18.3 µM, a TGI (NCI-H522 lung) of 61.1 µM and a GI50 (SR leukemia) of 18.3 µM. The TGI (SR leukemia) was greater than 100 µM, the GI50 (COLO 205 colon) was 33.9 µM and the TGI (COLO 205 colon) was greater than 100 µM. It also gave a GI50 (NCI/ADR-RES ovarian) of 14.3 µM, a TGI (NCI/ADR-RES ovarian) of 49.8 µM and a GI50 (HOP-92 NSCLC) of 1.84 µM. For the same compound, the TGI (HOP-92 NSCLC) was 14.9 µM, the GI50 (KM12 colon) was 30.8 µM and the TGI (KM12 colon) was greater than 100 µM. For the same compound, the GI50 (DU-145 prostate) was 18.1 µM, the TGI (DU-145 prostate) was 71.9 µM and the GI50 (UACC-62 melanoma) was 14.5 µM. For the same compound, the TGI (UACC-62 melanoma) was 41 µM, the GI50 (SNB-19 CNS) was 16.9 µM and the TGI (SNB-19 CNS) was 54 µM. The GI50 (MOLT-4 leukemia) was 7.17 µM, the TGI (MOLT-4 leukemia) was greater than 100 µM and the GI50 (PC-3 prostate) was 16.5 µM. The TGI (PC-3 prostate) was 50.8 µM, the GI50 (ACHN renal) was 13.5 µM and the TGI (ACHN renal) was 27.8 µM. It also gave a GI50 (IGROV1 ovarian) of 16.8 µM, a TGI (IGROV1 ovarian) of 39.8 µM and a GI50 (T-47D breast) of 11 µM. It also gave a TGI (T-47D breast) of 38.9 µM, a GI50 (SF-295 CNS) of 13.7 µM and a TGI (SF-295 CNS) of 34 µM. For the same compound, the GI50 (UACC-257 melanoma) was 30.6 µM, the TGI (UACC-257 melanoma) was 89.9 µM and the GI50 (HCT-116 colon) was 21.2 µM. For the same compound, the TGI (HCT-116 colon) was greater than 100 µM, the GI50 (RXF 393 renal) was 5.45 µM and the TGI (RXF 393 renal) was 27.6 µM. For the same compound, the GI50 (NCI-H226 lung) was 13 µM, the TGI (NCI-H226 lung) was 37.2 µM and the GI50 (CCRF-CEM leukemia) was 34.3 µM. For the same compound, the TGI (CCRF-CEM leukemia) was greater than 100 µM, the GI50 (NCI-H460 lung) was 26.8 µM and the TGI (NCI-H460 lung) was greater than 100 µM. The GI50 (CAKI-1 renal) was 8.22 µM, the TGI (CAKI-1 renal) was 25.4 µM and the GI50 (M14 melanoma) was 40.3 µM. The TGI (M14 melanoma) was greater than 100 µM, the GI50 (U251 CNS) was 19.9 µM and the TGI (U251 CNS) was greater than 100 µM. For the same compound, the GI50 (SK-MEL-28 melanoma) was 17.3 µM, the TGI (SK-MEL-28 melanoma) was 38.5 µM and the GI50 (HCT-15 colon) was 20 µM. It also gave a TGI (HCT-15 colon) greater than 100 µM, a GI50 (HOP-62 NSCLC) of 16.4 µM and a TGI (HOP-62 NSCLC) of 45.8 µM. It also gave a GI50 (EKVX NSCLC) of 14.6 µM, a TGI (EKVX NSCLC) of 53.5 µM and a GI50 (OVCAR-5 ovarian) of 12.7 µM. It also gave a TGI (OVCAR-5 ovarian) of 30.8 µM, a GI50 (OVCAR-4 ovarian) of 19.1 µM and a TGI (OVCAR-4 ovarian) of 84.6 µM. For the same compound, the GI50 (MCF7 breast) was 26.9 µM and the TGI (MCF7 breast) was greater than 100 µM.
